According to patent publication US20110152089A1, “HERBICIDAL COMPOSITIONS COMPRISING FLUFENACET” (Bayer CropScience AG, priority 2009, published 2011):

Experiments:
VIOAR [1] = test: PE soil application vs incorporation into the soil, greenhouse (Table 1); assay type: in vivo, Viola arvensis; settings: g of AS/ha: (A) 90, (B) 300, (C) 70, (A)+(B)+(C) 90 + 300 + 70, visual, about 3 weeks after application
Description: (§1) In the standard design of the test, seeds of various broad-leaved weed and weed grass biotypes (origins) were sown in a 8-13 cm diameter pot filled with natural soil of a standard field soil (loamy silt; non-sterile) and covered with a covering soil layer of about 1 cm. The pots were then cultivated in a greenhouse (12-16 h of light, temperature day 20-22° C., night 15-18° C.) until the time of application. The pots were treated on a laboratory track sprayer with spray liquors comprising the compositions according to the invention, mixtures of the prior art or components used individually. Application of the active compounds or active compound combinations formulated as WG, WP, EC or otherwise was carried out at the appropriate growth stages of the plants. The application rate for the spray application was 100-600 l of water/ha. After the treatment, the plants were returned to the greenhouses.
(§2) About 3 weeks after the application, the soil action or/and foliar action was assessed visually according to a scale of 0-100% in comparison to an untreated comparative group: 0%=no noticeable effect compared to the untreated comparative group; 100%=full effect compared to the untreated comparative group.
(§3) (notes: the term “seeds” also includes vegetative propagation forms such as, for example, rhizome pieces; abbreviations used: h light=hours of illumination, g of AS/ha=gram of active substance per hectare, l/ha=liter per hectare, S=sensitive, R=resistant) • 1. Pre-emergence action against weeds: seeds of various broad-leaved weed and weed grass biotypes (origins) were sown in a 8-13 cm diameter pot filled with natural soil of a standard field soil (loamy silt; non-sterile) and covered with a covering soil layer of about 1 cm. The pots were then cultivated in a greenhouse (12-16 h of light, temperature day 20-22° C., night 15-18° C.) until the time of application. The pots were treated at the BBCH stage 00-10 of the seeds/plants on a laboratory track sprayer with spray liquors comprising the compositions according to the invention, mixtures or components used individually, as WG, WP, EC or other formulations. The application rate for the spray application was 100-600 l of water/ha. After the treatment, the plants were returned to the greenhouses and, when required, treated with fertilizer and watered. • 2. Post-emergence action against weeds: seeds of various broad-leaved weed and weed grass biotypes (origins) were sown in a 8-13 cm diameter pot filled with natural soil of a standard field soil (loamy silt; non-sterile) and covered with a covering soil layer of about 1 cm. The pots were then cultivated in a greenhouse (12-16 h of light, temperature day 20-22° C., night 15-18° C.) until the time of application. […]

POAAN = test: PO application, greenhouse (Table 2); assay type: in vivo, Poa annua; settings: g of AS/ha: (A) 120, (B) 1200, (C) 140, (A)+(B)+(C) 120 + 1200 + 140, visual, about 3 weeks after application
Description: as §1, §2
(§4) (notes: the term “seeds” also includes vegetative propagation forms such as, for example, rhizome pieces; abbreviations used: h light=hours of illumination, g of AS/ha=gram of active substance per hectare, l/ha=liter per hectare, S=sensitive, R=resistant) • 1. Pre-emergence action against weeds: seeds of various broad-leaved weed and weed grass biotypes (origins) were sown in a 8-13 cm diameter pot filled with natural soil of a standard field soil (loamy silt; non-sterile) and covered with a covering soil layer of about 1 cm. The pots were then cultivated in a greenhouse (12-16 h of light, temperature day 20-22° C., night 15-18° C.) until the time of application. […]

HORVS [2] = test: PO application, crop selectivity, greenhouse (Table 2); assay type: in vivo, Hordeum vulgare, summer barley; settings: g of AS/ha: (A) 120, (B) 1200, (C) 140, (A)+(B)+(C) 120 + 1200 + 140, visual, about 3 weeks after application
Description: as §1, §2, §4

LOLPE = test: PE application vs pre-sowing application, greenhouse (Table 3); assay type: in vivo, Lolium perenne; settings: g of AS/ha: (A) 90, (B) 300, (C) 140, (A)+(B)+(C) 90 + 300 + 140
Description: as §1, §2, §3

AVEFA [3] = test: as above; assay type: in vivo, Avena fatua; settings: g of AS/ha: (A) 90, (B) 300, (C) 140, (A)+(B)+(C) 90 + 300 + 140
Description: as §1, §2, §3

HORVS [4] = test: PE application vs pre-sowing application, crop selectivity, greenhouse (Table 3); assay type: in vivo, Hordeum vulgare, summer barley; settings: g of AS/ha: (A) 90, (B) 300, (C) 140, (A)+(B)+(C) 90 + 300 + 140
Description: as §1, §2
(§5) (notes: the term “seeds” also includes vegetative propagation forms such as, for example, rhizome pieces; abbreviations used: h light=hours of illumination, g of AS/ha=gram of active substance per hectare, l/ha=liter per hectare, S=sensitive, R=resistant) • 1. Pre-emergence action against weeds: seeds of various broad-leaved weed and weed grass biotypes (origins) were sown in a 8-13 cm diameter pot filled with natural soil of a standard field soil (loamy silt; non-sterile) and covered with a covering soil layer of about 1 cm. The pots were then cultivated in a greenhouse (12-16 h of light, temperature day 20-22° C., night 15-18° C.) until the time of application. The pots were treated at the BBCH stage 00-10 of the seeds/plants on a laboratory track sprayer with spray liquors comprising the compositions according to the invention, mixtures or components used individually, as WG, WP, EC or other formulations. The application rate for the spray application was 100-600 l of water/ha. After the treatment, the plants were returned to the greenhouses and, when required, treated with fertilizer and watered. • 2. Post-emergence action against weeds: seeds of various broad-leaved weed and weed grass biotypes (origins) were sown in a 8-13 cm diameter pot filled with natural soil of a standard field soil (loamy silt; non-sterile) and covered with a covering soil layer of about 1 cm. The pots were then cultivated in a greenhouse (12-16 h of light, temperature day 20-22° C., night 15-18° C.) until the time of application. The pots were treated at various BBCH stages between 11-25 of the seeds/plants, i.e. generally between two to three weeks after the start of the cultivation, on a laboratory track sprayer with spray liquors comprising the compositions according to the invention, mixtures or components used individually, as WG, WP, EC or other formulations. The application rate for the spray application was 100-600 l of water/ha. After the treatment, the plants were returned to the greenhouses and, when required, treated with fertilizer and watered. • 3. Pre-emergence action against weeds with and without incorporation of active compound: seeds of various broad-leaved weed and weed grass biotypes (origins) were sown in a 8-13 cm diameter pot filled with natural soil of a standard field soil (loamy silt; non-sterile). […]

MATCH [5] = test: PE application with different irrigation, greenhouse (Table 4); assay type: in vivo, Matricaria chamomilla; settings: g of AS/ha: (A) 90, (B) 300, (C) 140, (A)+(B)+(C) 90 + 300 + 140
Description: as §1, §2, §5

AVEFA [6] = test: as above; assay type: in vivo, Avena fatua; settings: g of AS/ha: (A) 90, (B) 300, (C) 140, (A)+(B)+(C) 90 + 300 + 140
Description: as §1, §2, §5

HORVS [7] = test: PE application with different irrigation, crop selectivity, greenhouse (Table 4); assay type: in vivo, Hordeum vulgare, summer barley; settings: g of AS/ha: (A) 90, (B) 300, (C) 140, (A)+(B)+(C) 90 + 300 + 140
Description: as §1, §2, §5

STEME = test: Activity with different soil types, greenhouse (Table 5); assay type: in vivo, Stellaria media; settings: g of AS/ha: (A) 90, (B) 300, (C) 140, (A)+(B)+(C) 90 + 300 + 140; for activity STEME IU soil: IU soil (loamy silt standard field soil); for activity STEME IU/EC73 soil: IU/EC73 soil (heavy soil, higher organic substance)
Description: as §1, §2, §5

VIOAR [8] = test: as above; assay type: in vivo, Viola arvensis; settings: g of AS/ha: (A) 90, (B) 300, (C) 140, (A)+(B)+(C) 90 + 300 + 140; for activity VIOAR IU soil: IU soil (loamy silt standard field soil); for activity V18 VIOAR IU/EC73 soil: IU/EC73 soil (heavy soil, higher organic substance)
Description: as §1, §2, §5

LOLSS = test: Resistant biotypes, PE application, greenhouse (Table 6); assay type: in vivo, Lolium species; settings: g of AS/ha: (A) 90, (B) 300, (C) 140, (A)+(B)+(C) 120 + 600 + 140, iodosulfuron 10; for activity LOLSS resistant: resistant (EMR) biotype; for activity LOLSS sensitive: sensitive biotype
Description: as §1, §2, §3

HORVS [9] = test: Different sowing depths, PE application, crop selectivity, greenhouse (Table 7); assay type: in vivo, Hordeum vulgare, summer barley; settings: for activity HORVS 5 mm (crop plant): sowing depth 5 mm; for activity HORVS 20 mm (crop plant): sowing depth 20 mm
Description: as §1, §2, §5

TRZAW = test: Different soil pH, PE application, crop selectivity, greenhouse (Table 8); assay type: in vivo, Triticum aestivum, winter wheat; settings: for activity TRZAW pH 7.4 (crop plant): soil pH 7.4, g of AS/ha: (A) 90, (B) 300, (C) 140, (A)+(B)+(C) 90 + 300 + 140; for activity TRZAW pH 8.4 (crop plant): soil pH 8.4, g of AS/ha: (A) 90, (B) 300, (C) 140, (A)+(B)+(C) 90 + 300 + 140
Description: as §1, §2, §5

MATCH [10] = test: Different soil pH, PE application, greenhouse (Table 8); assay type: in vivo, Matricaria chamomilla; settings: for activity MATCH pH 7.4: soil pH 7.4, g of AS/ha: (A) 90, (B) 300, (C) 140, (A)+(B)+(C) 90 + 300 + 140; for activity MATCH pH 8.4: soil pH 8.4, g of AS/ha: (A) 90, (B) 300, (C) 140, (A)+(B)+(C) 90 + 300 + 140
Description: as §1, §2, §5

[11] = application 7 days prior to sowing
[12] = g of AS/ha: (A) 90, (B) 300, (C) 140, (A)+(B)+(C) 90 + 300 + 140
[13] = g of AS/ha: (A) 90, (B) 300, (C) 140, (A)+(B)+(C) 90 + 300 + 140, listed as trifluralin

Row | Structure (SMILES) | activity VIOAR (VIOAR [1]; PE application) | activity VIOAR (VIOAR [1]; incorporation into the soil) | activity POAAN (POAAN) | activity HORVS (crop plant) (HORVS [2]) | activity LOLPE (LOLPE; PE application) | activity LOLPE (LOLPE; [11]) | activity AVEFA (AVEFA [3]; PE application) | activity AVEFA (AVEFA [3]; [11]) | activity HORVS (crop plant) (HORVS [4]; PE application) | activity HORVS (crop plant) (HORVS [4]; [11]) | activity MATCH (MATCH [5]; irrigation from above) | activity MATCH (MATCH [5]; irrigation from below) | activity AVEFA (AVEFA [6]; irrigation from above) | activity AVEFA (AVEFA [6]; irrigation from below) | activity HORVS (crop plant) (HORVS [7]; irrigation from above) | activity HORVS (crop plant) (HORVS [7]; irrigation from below) | activity STEME IU soil (STEME) | activity STEME IU/EC73 soil (STEME) | activity VIOAR IU soil (VIOAR [8]) | activity V18 VIOAR IU/EC73 soil (VIOAR [8]) | other results
1 | CSc1nnc(C(C)(C)C)c(=O)n1N [(C) metribuzin, 4-amino-6-(1,1-dimethyl-ethyl)-3-(methylthio)-1,2,4-triazin-5-(4H)-one] | 0% | 10% | 79% | 70% | 20% | 80% | 70% | 0% | 30% | 20% | 0% | 60% | 30% | 30% | 80% | 10% | 75% | 5% | 50% | 0% | activity LOLSS resistant (LOLSS): 70%; activity LOLSS sensitive (LOLSS): 70%; activity HORVS 5 mm (crop plant) (HORVS [9]; [12]): 70%; activity HORVS 20 mm (crop plant) (HORVS [9]; [12]): 30%; activity TRZAW pH 7.4 (crop plant) (TRZAW): 70%; activity TRZAW pH 8.4 (crop plant) (TRZAW): 80%; activity MATCH pH 7.4 (MATCH [10]): 100%; activity MATCH pH 8.4 (MATCH [10]): 98%
2 | CCCN(CCC)c1c([N+](=O)[O-])cc(C(F)(F)F)cc1[N+](=O)[O-] [(B) trifluralin, 2,6-dinitro-N,N-dipropyl-4-(trifluoromethyl)benzenamine] | 50% | 0% | 40% | 20% | 90% | 0% | 0% | 60% | 0% | 20% | 0% | 40% | 25% | 38% | 90% | 60% | 50% | 5% | 77% | 0% | activity LOLSS resistant (LOLSS): 83%; activity LOLSS sensitive (LOLSS): 98%; activity HORVS 5 mm (crop plant) (HORVS [9]; [12]): 25%; activity HORVS 5 mm (crop plant) (HORVS [9]; [13]): 70%; activity HORVS 20 mm (crop plant) (HORVS [9]; [12]): 20%; activity HORVS 20 mm (crop plant) (HORVS [9]; [13]): 30%; activity TRZAW pH 7.4 (crop plant) (TRZAW): 0%; activity TRZAW pH 8.4 (crop plant) (TRZAW): 0%; activity MATCH pH 7.4 (MATCH [10]): 0%; activity MATCH pH 8.4 (MATCH [10]): 0%
